Article PMC6838013, “Insight Into Mosquito GnRH-Related Neuropeptide Receptor Specificity Revealed Through Analysis of Naturally Occurring and Synthetic Analogs of This Neuropeptide Family” (Frontiers in Endocrinology, 2019)
Values joined by “and” are separate entries in the source; they are usually repeats but may differ in a detail not shown here. Identical values can stand only once. Non-standard residues stand in square brackets, D forms with d. Residues, ends and D or L forms follow the SMILES beside them. pGlu = O=C1CC[C@@H](C(=O)O)N1

Legend:
[1] = molecular target: A. aegypti AKHR-IA receptor (AKHR-IA) (Aedes aegypti, UniProt A0A2P1A8S4); experiment: Calcium bioluminescence (aequorin) reporter assay of heterologously expressed AKHR-IA; type: cell-based; conditions: for Fold-reduction in activity relative to Aedae-AKH: AKHR-IA in CHO-K1 aequorin cells, relative to native Aedae-AKH; for EC50: CHO-K1 cells stably expressing aequorin, transiently transfected with AKHR-IA (pcDNA3.1+), luminescence 20 s, 3 to 4 independent biological replicates, ND = no determined EC50 due to minimal or no detectable activity up to 10 μM
Sequence of A. aegypti AKHR-IA receptor (AKHR-IA) (A0A2P1A8S4 1-410): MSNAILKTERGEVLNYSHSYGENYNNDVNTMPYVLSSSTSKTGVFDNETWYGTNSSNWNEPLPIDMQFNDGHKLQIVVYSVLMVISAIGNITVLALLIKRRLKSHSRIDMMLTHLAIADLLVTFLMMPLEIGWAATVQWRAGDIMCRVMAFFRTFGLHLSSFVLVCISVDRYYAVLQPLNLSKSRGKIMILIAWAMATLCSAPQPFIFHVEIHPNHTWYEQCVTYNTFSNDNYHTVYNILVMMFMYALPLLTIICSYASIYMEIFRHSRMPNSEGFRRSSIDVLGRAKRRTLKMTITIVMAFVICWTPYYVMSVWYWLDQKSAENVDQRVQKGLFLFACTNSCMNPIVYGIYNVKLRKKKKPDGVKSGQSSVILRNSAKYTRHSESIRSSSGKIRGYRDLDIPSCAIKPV
Method: For each construct, an overnight liquid culture of clonal recombinant bacteria containing the appropriate plasmid construct was grown in antibiotic-containing LB media and used to isolate midiprep DNA using the PureLink Midiprep kit (Life Technologies, Burlington, ON). Midiprep samples were then quantified and sent for sequencing as described previously ([26], [27]).
(§1) Functional activation of the AedaeACPR and AedaeAKHR-IA receptors was carried out following a previously described mammalian cell culture system involving a Chinese hamster ovary (CHO)-K1 cell line stably expressing aequorin ([43]). Cells were grown in DMEM:F12 media containing 10% heat-inactivated fetal bovine serum (Wisent, St. Bruno, QC), 200 μg/mL Geneticin, 1x antimycotic-antibiotic to approximately 90% confluency, and were transiently transfected using either Lipofectamine LTX with Plus Reagent or Lipofectamine 3000 transfection systems (Invitrogen, Burlington, ON) following manufacturer recommended DNA to transfection reagent ratios. Cells were detached from the culture flasks at 48 h post-transfection using 5 mM EDTA in Dulbecco's PBS. Cells were then prepared for the receptor functional assay following a procedure described previously ([27]). Stocks of peptide analogs of ACP and AKH were used for preparation of serial dilutions all of which were prepared in assay media (0.1% BSA in DMEM:F12) and loaded in quadruplicates into 96-well white luminescence plates (Greiner Bio-One, Germany). Cells were loaded with an automatic injector into each well of the plate containing different peptide analogs at various concentrations as well as negative control (assay media alone) and positive control wells (50 μM ATP). Immediately after injection of the cells, luminescence was measured for 20 s using a Synergy 2 Multi-Mode Microplate Reader (BioTek, Winooski, VT, USA). Calculations, including determination of EC50 values, were conducted in GraphPad Prism 7.02 (GraphPad Software, San Diego, USA) from dose-response curves from 3 to 4 independent biological replicates.

[2] = system: A. aegypti ACP receptor (AedaeACPR); experiment: Calcium bioluminescence (aequorin) reporter assay of heterologously expressed ACPR; type: cell-based, Aedes aegypti
Source text: Therefore, to improve the bioluminescent signal linked to calcium mobilization following receptor activation, which was required in order to provide greater signal to noise ratio when testing ACP analogs with substitutions leading to intermediate levels of activation of the ACPR, we created a new mammalian expression construct using the dual promoter vector, pBudCE4.1. Specifically, we utilized a cloning strategy as reported previously ([41]) whereby the ACPR was inserted into the multiple cloning site (MCS) downstream of the CMV promoter in pBudCE4.1 using the sense primer SalI-KozakACPR, 5′-[…]-3′ and anti-sense primer XbaI-ACPR, 5′-[…]-3′, which directionally inserted the ACPR within the MCS downstream of the CMV promoter. Secondly, the murine homolog (Gα15) of the human promiscuous G protein, Gα16, which indiscriminately couples a wide variety of GPCRs to calcium signaling ([42]) was inserted into the MCS downstream of the EF1-α promoter in pBudCE4.1 using the sense primer NotI-Gα15, 5′-[…]-3′ and anti-sense primer BglII-Gα15, 5′-[…]-3′, which directionally inserted the murine Gα15 within the MCS downstream of the EF1-α promoter.
as §1

Molecule | Fold-reduction in activity relative to Aedae-AKH [1] | EC50 [1] [nM] | Activity on ACPR at the highest tested dose, in words ([2]; 10 μM, Figure 2, ANOVA and Tukey post-test) | Fold-reduction in activity relative to AedaeACP ([2]; ACPR in CHO-K1 aequorin cells, relative to native Aedae-ACP) | Improved efficacy on AKHR-IA relative to native mosquito AKH ([1]; relative to Aedae-AKH) | Fold-reduction in activity relative to Aedae-AKH ([1]; listed as V^2-Peram-CAH-II) [fold] | AKHR-IA activation at the highest tested concentration ([1]; 10 μM, luminescence relative to maximal response with 10^−5M Aedae-AKH)
CC(C)C[C@H](NC(=O)[C@@H]1CCC(=O)N1)C(=O)N[C@H](C(=O)N[C@@H](Cc1ccccc1)C(=O)N[C@H](C(=O)N1CCC[C@H]1C(=O)NCC(=O)N[C@@H](Cc1c[nH]c2ccccc12)C(=O)NCC(=O)N[C@@H](CCC(N)=O)C(N)=O)[C@@H](C)O)[C@@H](C)O [Bommo-AKH] ([pGlu]LTFTPGWGQ-NH2) | 11 fold and 10.9 fold | 23.6 | inactive | >1,000 fold | – | – | –
CC(C)C[C@H](NC(=O)[C@@H]1CCC(=O)N1)C(=O)N[C@H](C(=O)N[C@@H](Cc1ccccc1)C(=O)N[C@H](C(=O)N1CCC[C@H]1C(=O)N[C@@H](CC(N)=O)C(=O)N[C@@H](Cc1c[nH]c2ccccc12)C(N)=O)[C@@H](C)O)[C@@H](C)O [Peram-CAH-II] ([pGlu]LTFTPNW-NH2) | 1.0 fold | 2.23 | – | – | – | – | –
CC(C)C[C@H](NC(=O)[C@@H]1CCC(=O)N1)C(=O)N[C@@H](CC(N)=O)C(=O)N[C@@H](Cc1ccccc1)C(=O)N[C@H](C(=O)N1CCC[C@H]1C(=O)N[C@@H](CC(N)=O)C(=O)N[C@@H](Cc1c[nH]c2ccccc12)C(N)=O)[C@@H](C)O [Pyrap-AKH] ([pGlu]LNFTPNW-NH2) | 337 fold and 336.7 fold | 727 | – | – | – | – | –
CC(C)C[C@H](NC(=O)[C@@H]1CCC(=O)N1)C(=O)N[C@H](C(=O)N[C@@H](Cc1ccccc1)C(=O)N[C@H](C(=O)N1CCC[C@H]1C(=O)NCC(=O)N[C@@H](Cc1c[nH]c2ccccc12)C(N)=O)[C@@H](C)O)[C@@H](C)O [Tabat-AKH] ([pGlu]LTFTPGW-NH2) | 0.7 fold | 1.52 | – | – | ~ 30% and 30% | – | –
CC(C)[C@H](NC(=O)[C@@H]1CCC(=O)N1)C(=O)N[C@H](C(=O)N[C@@H](Cc1ccccc1)C(=O)N[C@H](C(=O)N1CCC[C@H]1C(=O)N[C@@H](CC(N)=O)C(=O)N[C@@H](Cc1c[nH]c2ccccc12)C(N)=O)[C@@H](C)O)[C@@H](C)O [V^2-PeramCAH-II] ([pGlu]VTFTPNW-NH2) | 68.8 fold | 148 | – | – | – | 69 | –
pQLTFTSS-amide [Lacol-AKH-7mer, C-terminally truncated synthetic analog based on an endogenous peptide from Laconobia oleracea] | – | – | – | – | – | – | ~ 7%
